Source: article PMC11137182, “Selective and brain-penetrant ACSS2 inhibitors target breast cancer brain metastatic cells” (Frontiers in Pharmacology, 2024)

Experiments:
[1] = system: MDR1 (P-gp); test: Bi-directional permeability across MDR1-MDCK cell monolayer (BBB assay); type: in vitro ADME, canine; conditions: dog, MDR1-MDCK I monolayer
Excerpt: (§1) This assay provides the apparent permeability coefficient (Papp), efflux ratio, and % recovery to assess compound permeation.

[2] = system: MDR1-MDCK cells; test: as above; type: in vitro ADME, canine; conditions: MDR1-MDCK BBB assay
Excerpt: as §1

[3] = molecular target: T1, hACSS1 (Homo sapiens, UniProt Q9NUB1); test: SPR binding to immobilized hACSS1; conditions: single concentration 25μM injection
T1 construct: purchased MyBioSource (www.mybiosource.com)
T1 sequence (Q9NUB1 38-689): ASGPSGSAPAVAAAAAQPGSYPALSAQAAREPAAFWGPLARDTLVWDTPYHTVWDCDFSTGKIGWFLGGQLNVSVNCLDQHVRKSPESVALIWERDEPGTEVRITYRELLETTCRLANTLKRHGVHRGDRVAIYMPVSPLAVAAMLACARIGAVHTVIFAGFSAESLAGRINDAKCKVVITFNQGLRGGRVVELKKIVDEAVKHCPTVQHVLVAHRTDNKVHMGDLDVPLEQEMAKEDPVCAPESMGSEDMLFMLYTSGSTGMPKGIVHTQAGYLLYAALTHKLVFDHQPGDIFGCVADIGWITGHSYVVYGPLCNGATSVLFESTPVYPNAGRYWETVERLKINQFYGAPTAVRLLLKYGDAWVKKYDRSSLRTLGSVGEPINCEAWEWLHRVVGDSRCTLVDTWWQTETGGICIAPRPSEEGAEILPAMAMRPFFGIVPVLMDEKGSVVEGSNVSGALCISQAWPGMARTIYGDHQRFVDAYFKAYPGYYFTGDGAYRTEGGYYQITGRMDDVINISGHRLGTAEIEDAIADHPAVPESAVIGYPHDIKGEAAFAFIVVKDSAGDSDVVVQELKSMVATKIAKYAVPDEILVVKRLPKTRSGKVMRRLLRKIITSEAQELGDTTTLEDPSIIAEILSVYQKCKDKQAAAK
Description: All binding assays were performed on a ProteOn XPR36 SPR Protein Interaction Array System (Bio-Rad Laboratories, Hercules, CA, United States). The instrument temperature was set at 25°C for all kinetic analyses. ProteOn GLH sensor chips were preconditioned with two short pulses each (10 s) of 50 mM NaOH, 100 mM HCl, and 0.5% sodium […]. Then, the system was equilibrated with running buffer (1x PBS pH 7.4, 3% DMSO, and 0.005% polysorbate 20). The surface of a GLH sensor chip was activated with a 1:100 dilution of a 1:1 mixture of 1-ethyl-3-(3-dimethylaminopropyl) carbodiimide hydrochloride (0.2 M) and sulfo-N-hydroxysuccinimide (0.05 M). Immediately after chip activation, the human ACSS2 or hACSS1 proteins were prepared at a concentration of 10 μg/mL in 10 mM sodium acetate, pH 5.5, and injected across ligand flow channels for 5 min at a flow rate of 30 μL/min. Then, after unreacted protein had been washed out, excess active ester groups on the sensor surface were capped by a 5 min injection of 1M ethanolamine HCl (pH 8.0) at a flow rate of 5 μL/min. […] Data were analyzed using the ProteOn Manager Software version 3.0 (Bio-Rad). […]

[4] = system: 4T1BR cells; test: Cell death by propidium iodide flow cytometry; type: cell-based; conditions: 100 μM, 48 hours
Description: (§2) Cells were prepared according to manufacturer protocol (BD Pharmingen, Propidium Iodine). Briefly, cells were trypsinized (0.25% Trypsin), counted, washed twice with 1xPBS, and resuspended in 100uL 1X binding buffer incubated with 5 uL Propidium Iodine (PI) staining solution for 15 min in the dark at room temperature. Following incubation, the volume was brought up to 500uL of 1X binding buffer. Tubes were then analyzed using a Guava easyCyte flow cytometer. All data were collected and analyzed using a Guava EasyCyte Plus system and CytoSoft (version 5.3) software (Millipore). Data are gated and expressed relative to the appropriate unstained and single-stained controls.

[5] = system: MDA-MB-231BR cells; test: Cell death by propidium iodide flow cytometry; type: cell-based; conditions: 100 μM, 48 h
Description: as §2

[6] = molecular target: T2, ACSS2 (Homo sapiens, UniProt Q9NR19); test: Fluorescence polarization-based ACSS2 biochemical assay (ATP to AMP conversion); conditions: 100 nM ACSS2, triplicate, ± SD; read-out: IC50, inhibition of ATP to AMP conversion of ACSS2
T2 construct: His-tag (N); His-tag (C); made in house; host or cells: E. coli BL21 (DE3) RIL
T2 sequence (Q9NR19 whole entry): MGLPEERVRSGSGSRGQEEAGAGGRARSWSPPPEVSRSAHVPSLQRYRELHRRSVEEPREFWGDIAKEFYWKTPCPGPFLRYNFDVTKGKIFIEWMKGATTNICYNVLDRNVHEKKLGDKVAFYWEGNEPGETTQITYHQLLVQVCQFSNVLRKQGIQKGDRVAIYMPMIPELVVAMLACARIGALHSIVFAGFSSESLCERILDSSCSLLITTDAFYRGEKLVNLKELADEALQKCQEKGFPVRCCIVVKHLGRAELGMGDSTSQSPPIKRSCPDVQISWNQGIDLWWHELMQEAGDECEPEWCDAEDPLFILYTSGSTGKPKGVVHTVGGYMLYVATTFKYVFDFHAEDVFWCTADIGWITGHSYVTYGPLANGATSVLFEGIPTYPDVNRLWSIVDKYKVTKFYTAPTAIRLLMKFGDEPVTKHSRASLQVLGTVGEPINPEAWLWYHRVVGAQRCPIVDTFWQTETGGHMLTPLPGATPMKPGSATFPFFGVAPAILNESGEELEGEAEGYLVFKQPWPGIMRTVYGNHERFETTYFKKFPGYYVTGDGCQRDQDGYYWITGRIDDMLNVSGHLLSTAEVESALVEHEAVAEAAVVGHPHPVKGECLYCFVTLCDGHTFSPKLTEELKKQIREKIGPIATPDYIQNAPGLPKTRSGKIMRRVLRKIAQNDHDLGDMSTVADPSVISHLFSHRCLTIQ
Description: ACSS2 enzyme activity was measured using the TranScreener AMP^2/GMP^2 Assay Kit—FP Readout assay (BellBrook Labs). The assay was performed in white, opaque, 96-well plates. […] ACSS2 was used in assay buffer (30 mM HEPES, pH 7.4, 140 mM NaCl, 2 mM MgCl2, 5 mM sodium acetate, 2 mM DTT, 0.05% CHAPS). Substrate mix was added, followed by a 60-min incubation. Final substrate concentrations were 5 mM acetate, 50 μM ATP, and 5 μM CoA. After incubation, conjugated AMP antibody and AMP tracer were added according to the methods described by BellBrook Labs. After 30 min, the FP signal was measured using a Tecan Spark multimode microplate reader. In the analysis, data were normalized to represent the percentage inhibition of ATPase activity.

`N[C@H](C(=O)N1CCCC(c2ccccc2)(c2ccccc2)C1)C1CC1` [AD-8007] was tested, and the Papp A→B ([1]; A to B) was 2.81 ×10⁻⁶ cm/s, the Papp B→A ([1]; B to A) was 25.2 ×10⁻⁶ cm/s and the “efflux ratio (in words)” value [2] was “low efflux ratio”. For the same compound, the “permeability (in words)” value [2] was “moderate permeability”, the “binding to hACSS1 (specificity)” value [3] was “specifically bind ACSS2 and not the mitochondrial isoform hACSS1” and the “cell death (PI+ cells)” value [4] was “significantly increased cell death”. The “cell death (PI+ cells)” value [5] was “significantly increased cell death” and the IC50 [6] was 890 ± 290 nM.
